Data as given in paper PMC12261219, “Comparative Evaluation of Thiol- and Amine-Conjugating Moieties for Endogenous Albumin Binding after Intravenous Administration” (ACS Pharmacology & Translational Science, 2025).
Where “and” joins values, the source holds several entries; their conditions need not be identical. Identical values can stand only once.

Key:
[1] = Hydrolytic stability in buffer (HPLC); type: physicochemical; settings: for Intact compound after 25 h: 0.5 mM
Experimental: The samples were incubated at 20 °C and measured over 25 h. Reversed phase high-performance liquid chromatography (RP-HPLC) runs were performed using a Waters Acquity UPLC BEH C18 column (130 Å, 1.7 μm, 3 mm × 50 mm) on a Dionex Thermo Scientific UltiMate 3000 HPLC system, equipped with a HPG-3400RS binary pump and a DAD-3000 UV–vis detector. Chromatograms were evaluated at a wavelength of 220 nm. Milli-Q water (mobile phase A) and acetonitrile (mobile phase B), both containing 0.1% TFA, were used as eluents. The flow rate was consistent at 0.6 mL/min for all measurements using the following gradient: 0–0.5 min A 95:5 B, 0.5–5.5 min linear gradient to A 5:95 B, 5.5–6.5 min A 5:95 B, 6.5–9.2 min A 95:5 B. The same conditions were applied for stability measurements in 100 mM PB at pH 5.5 and 6.5 as well as in 20 mM HEPES and MOPS at pH 7.4. RP-HPLC-MS analyses of the same samples after the stability measurements were conducted on a Waters Acquity UPLC BEH C18 column (130 Å, 1.7 μm, 3 mm × 50 mm) on an Agilent 1260 Infinity II system equipped with a Flexible pump, a 1260 VWD UV–vis detector and the LC–MSD system. Chromatograms were evaluated at a wavelength of 220 nm. Milli-Q water (mobile phase A) and acetonitrile (mobile phase B), both containing 0.1% formic acid, were used as eluents. The flow rate was consistent at 0.6 mL/min for all measurements using the following gradient: 0–0.5 min A 95:5 B, 0.5–6.0 min linear gradient to A 5:95 B, 6.0–7.0 min A 5:95 B, 7.0–7.1 min linear gradient to A 95:5 B, 7.1–8.0 min A 95:5 B.

[2] = system: CT26 colon cancer cells; settings: i.v.
Experimental: CT26 cells (5 × 10^5 in serum-free medium) were injected s.c. into the right flank of male Balb/c mice. […] 0.9% NaCl served as solvent control. Animals were controlled for distress development every day and tumor size was assessed regularly by caliper measurement. Tumor volume was calculated using the formula: (length × width^2)/2. In the overall survival experiments, mice were sacrificed by cervical dislocation in the case of a tumor length >20 mm, tumor ulceration or body weight loss >20%.

[3] = equimolar to 9 mg/kg oxaliplatin, days 4, 8, 12

Hydrolytic stability in all tested conditions ([1]; PB pH 5.5, 6.5, 7.4, HEPES and MOPS pH 7.4, 20 °C, 25 h)	Compound	Intact compound after 25 h ([1]; 20 mM HEPES, pH 7.4, 20 °C)	Intact compound after 25 h ([1]; 20 mM MOPS, pH 7.4, 20 °C)	Intact compound after 25 h ([1]; 100 mM PB, pH 5.5, 20 °C)	Intact compound after 25 h ([1]; 100 mM PB, pH 6.5, 20 °C)	Intact compound after 25 h ([1]; 100 mM PB, pH 7.4, 20 °C) [%]	Impact on tumor growth [2, 3]	Increase of overall survival compared to solvent control [2, 3] [%]	Prolonged overall survival compared to solvent-treated animals [2, 3]	Tolerability (body weight) ([2]; three administrations over 2 weeks (days 4, 8, 12))
stable	CC(=O)[O][Pt-2]12([O]C(=O)NCCOCCOCCOCCOC(=O)C3=CCCCC3S(=O)(=O)Nc3ccc(F)cc3F)([NH2+]C3CCCCC3[NH2+]1)[O]C(=O)C(=O)[O]2 (mixture of isomers) [DFSA-Ox-OAc, (OC-6–34)-Acetato[(1R,2R)-1,2-cyclohexane-1,2-diamino][(1-(6-(N-(2,4-difluorophenyl)-sulfamoyl)-cyclohex-1-en-1-yl)-1-oxo-2,5,8,11-tetraoxatridecan-13-yl)-carbamato]-oxalato platinum(IV)]	stable	stable	stable	stable	97	–	–	–	–
–	CC(=O)[O][Pt-2]12([O]C(=O)NCCOCCOCCOCCOCCN3C(=O)C=CC3=O)([NH2+][C@@H]3CCCC[C@H]3[NH2+]1)[O]C(=O)C(=O)[O]2 [Mal-Ox-OAc, (OC-6–34)-Acetato[(1R,2R)-1,2-cyclohexane-1,2-diamino][ (14-(2,5-dioxo-2,5-dihydro-1H-pyrrol-1-yl)-3,6,9,12-tetraoxatetradecyl)-carbamato]-oxalato platinum(IV)]	56% and ~60%	58% and ~60%	96%	80%	23	distinctly reduced tumor growth	~50	about 10 days	–
–	CC(=O)[O][Pt-2]12([O]C(=O)NCCOCCOCCOCCOc3ccc(-c4nnc(S(C)(=O)=O)o4)cc3)([NH2+][C@@H]3CCCC[C@H]3[NH2+]1)[O]C(=O)C(=O)[O]2 [PODS-Ox-OAc, (OC-6–34)-Acetato[(1R,2R)-1,2-cyclohexane-1,2-diamino][(2-(2-(2-(2-(4-(5-(methylsulfonyl)-1,3,4-oxadiazol-2-yl)-phenoxy)-ethoxy)-ethoxy)-ethoxy)-ethyl)-carbamato]-oxalato platinum(IV)]	54%	76%	99%	94%	70	slight remission or stable disease	~80	–	well-tolerated
